Key:
Format in all cases: in vivo
[1] = test system: green rice leafhopper (Nephotettix cincticeps); assay: Nephotettix test; settings: active compound concentration 0.1%; after 6 days; dipped rice seedlings (Oryza sativa)
Procedure: (§1) Nephotettix Test Solvent: 7 parts by weight of dimethylformamide Emulsifier: 1 part by weight of alkylaryl polyglycol ether To produce a suitable preparation of active compound, 1 part by weight of active compound is mixed with the stated amount of solvent and the stated amount of emulsifier, and the concentrate is diluted with water to the desired concentration. Rice seedlings (Oryza sativa) are treated by being dipped into the preparation of the active compound of the desired concentration and are infested with the green rice leafhopper (Nephotettix cincticeps) while the leaves are still moist. After the specified period of time, the destruction in % is determined. 100% means that all the leafhoppers have been killed; 0% means that none of the leafhoppers have been killed.

[2] = test system: mustard beetle larvae (Phaedon cochleariae); assay: Phaedon larvae test; settings: active compound concentration 0.1%; after 7 days; dipped cabbage leaves (Brassica oleracea)
Procedure: as §1, with “Phaedon larvae” for “Nephotettix”, “Cabbage leaves (Brassica oleracea)” for “Rice seedlings (Oryza sativa)”, “mustard beetle larvae (Phaedon cochleariae),” for “the green rice leafhopper (Nephotettix cincticeps)”, “After the specified period of time, the destruction in % is determined.” left out, “beetle larvae” for “leafhoppers”

[3] = test system: common spider mite or two-spotted spider mite (Tetranychus urticae); assay: Tetranychus test (OP-resistant/dipping treatment); settings: active compound concentration 0.1%; after 13 days; dipped infested bean plants (Phaseolus vulgaris)
Procedure: Tetranychus Test (OP-resistant/dipping Treatment)
Solvent: 7 parts by weight of dimethylformamide
Emulsifier: 1 part by weight of alkylaryl polyglycol ether
To produce a suitable preparation of active compound, 1 part by weight of active compound is mixed with the stated amount of solvent and the stated amount of emulsifier, and the concentrate is diluted with water to the desired concentration.
Bean plants (Phaseolus vulgaris) which have been heavily infested with the common spider mite or two-spotted spider mite (Tetranychus urticae) in all stages of development are treated by being dipped into the preparation of the active compound of the desired concentration.
After the specified period of time, the destruction in % is determined. 100% means that all the spider mites have been killed; 0% means that none of the spider mites have been killed.

[4] = test system: peach aphid (Myzus persicae); assay: Myzus test; settings: active compound concentration 0.1%; after 6 days; dipped infested cabbage leaves (Brassica oleracea)
Procedure: as §1, with “Myzus” for “Nephotettix”, “Cabbage leaves (Brassica oleracea) which have been heavily infested with the peach aphid (Myzus persicae)” for “Rice seedlings (Oryza sativa)”, “concentration.” for “concentration and are infested with the green rice leafhopper (Nephotettix cincticeps) while the leaves are still moist.”, “aphids” for “leafhoppers”

[5] = test system: caterpillars of the diamond-back moth (Plutella xylostella); assay: Plutella test; settings: active compound concentration 0.1%; after 7 days; dipped cabbage leaves (Brassica oleracea)
Procedure: Plutella Test Solvent: 7 parts by weight of dimethylformamide Emulsifier: 1 part by weight of alkylaryl polyglycol ether To produce a suitable preparation of active compound, 1 part by weight of active compound is mixed with the stated amount of solvent and the stated amount of emulsifier, and the concentrate is diluted with water to the desired concentration. Cabbage leaves (Brassica oleracea) are treated by being dipped into the preparation of the active compound of the desired concentration and are infested with caterpillars of the diamond-back moth (Plutella xylostella) while the leaves are still moist. After the specified period of time, the destruction in % is determined. 100% means that all the caterpillars have been killed; 0% means that none of the caterpillars have been killed.

Cc1cc(Br)cc(C)c1C1=C(O)C2(CCCC(C)C2)NC1=O (stereo not drawn) [Example I-1-a-1]
100%: destruction in % [1] | destruction in % [2]

Cc1cc(C)c(C2=C(O)C3(CCCCC3)OC2=O)c(Br)c1 [Example I-2-a-1]
100%: destruction in % [1] | action (destruction in %) [3] | destruction in % [4] | destruction in % [2]

Cc1cc(C)c(C2=C(OC(=O)C(C)(C)C)C3(CCCCC3)OC2=O)c(Br)c1 [Example I-2-b-1]
100%: destruction in % [1] | destruction in % [5] | destruction in % [2]
